Results from patent publication US12298318B2, “Targeting ligands for tau pathology” (Texas Children's Hospital, priority 2019, dated 2025).

What was measured:
MAO-B enzyme = target: T1, MAO-B enzyme (Homo sapiens, UniProt P27338); conditions: brain; cited from earlier work
T1 sequence (P27338 1-520): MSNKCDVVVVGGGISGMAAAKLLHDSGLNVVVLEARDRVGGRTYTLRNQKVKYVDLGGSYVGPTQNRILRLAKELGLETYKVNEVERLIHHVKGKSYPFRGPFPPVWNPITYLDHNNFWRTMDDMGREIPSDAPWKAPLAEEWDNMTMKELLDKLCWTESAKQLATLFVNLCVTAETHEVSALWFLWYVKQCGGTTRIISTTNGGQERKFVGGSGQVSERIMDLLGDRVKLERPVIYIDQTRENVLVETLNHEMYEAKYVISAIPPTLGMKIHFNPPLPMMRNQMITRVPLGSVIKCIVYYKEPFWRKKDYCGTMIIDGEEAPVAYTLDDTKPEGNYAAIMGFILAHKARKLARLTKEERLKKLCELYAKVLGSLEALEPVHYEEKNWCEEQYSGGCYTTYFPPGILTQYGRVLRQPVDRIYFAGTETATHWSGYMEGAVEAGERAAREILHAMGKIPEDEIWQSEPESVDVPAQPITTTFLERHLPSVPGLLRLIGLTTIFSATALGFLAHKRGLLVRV

tetrameric VIM = tetrameric VIM (Homo sapiens, UniProt P08670); conditions: cited from earlier work
[1] = tested on: hyperphosphorylated SH SY5Y cells; assay: Saturation binding of Cy5-labeled aptamer, apparent Kd, SH-SY5Y cells; set-up: species or system human; conditions: read-out: apparent equilibrium dissociation constant (Kdapp)
Method: (§1) The apparent equilibrium dissociation constants (Kdapp) were measured by serial dilution of aptamer solutions with target hyperphosphorylated, non-target differentiated, and undifferentiated SH-SY5Y cells. The affinity of these aptamers was also tested with another immortal neural progenitor stem cell line, ReN-VM, in hyperphosphorylative and non-hyperphosphorylative conditions. The Kdapp for Tau_1 (SEQ ID NO: 5; DONGYBM) and Tau_3 (SEQ ID NO: 6; MUSQD) with hyperphosphorylated SH SY5Y cells is 0.167±0.015 nM and 0.194±0.032 nM; and for the ReN-VM cells 318.15±46.2 nM and 234.24±38.6 nM, respectively (FIG. 3).
(§2) Hyperphosphorylation. Hyperphosphorylation was induced in SH-SY5Y cells by addition of 30 nM OA (Sigma Aldrich, St. Louis, MO, #459620) in growth medium with 30 μM RA for 24 h. ReNcell VM were hyperphosphorylated using 100 nM QA (SigmaAldrich, St. Louis, MO, #P63204) in culture media for 24 h.
(§3) Aptamer binding studies. Aptamer binding studies were conducted with undifferentiated, differentiated, and hyperphosphorylated SH SY5Y and ReN cell VM grown in 96-wells seeded at 10000 per well. […]

ReN-VM cells = assay: Saturation binding of Cy5-labeled aptamer, apparent Kd, ReN-VM cells; conditions: read-out: apparent equilibrium dissociation constant (Kdapp)
Method: as §1, §2, §3

[2] = tested on: hyperphosphorylative SH-SY5Y cells; assay: Binding studies with Cy5-labeled aptamer (cell staining); assay type: cell-based, human; conditions: 50 nM, 2 h at 4° C. (FIG. 2C)
Source text: Negative selection eliminated certain sequences that were not specific to the hyperphosphorylative state or have a propensity for hepatocyte uptake. However, the relative abundance of key sequences increased steadily throughout the whole process. The 23 most abundant sequences at round 26 were identified, and their abundance throughout the SELEX process as calculated using AptaAligner is shown in FIG. 2B. The sequence Tau_1 (SEQ ID NO: 5; DONGYBM) was the most prevalent at cycle 26, representing 20.6% of the thioaptamers present. A single base difference from this sequence, Tau_3 (SEQ ID NO: 6; MUSQD), was the second most represented sequence (10.4%). […] The secondary structure of the aptamers Tau_1 (SEQ ID NO: 5; DONGYBM) and Tau_3 (SEQ ID NO: 6; MUSQD) calculated using mfold is shown in FIG. 2D. The sequences present at the final round were grouped by hierarchical clustering and sequence homology using the multiple sequence alignment code MAFFT showing five distinct families, which were also presented as a cladogram (using the Clustal Omega) showing the common ancestry between these five aptamers families (FIG. 2E).
Immunocytochemistry. […]

[3] = tested on: OA treated differentiated SH-SY5Y cells; assay: Cell-SELEX sequence abundance by next-generation sequencing; set-up: species or system human; conditions: SELEX cycle 26
Method: Aptamer screening was performed using the cell-SELEX approach on differentiated SH-SY5Y cells in a hyperphosphorylative state. FIGS. 2A-2E describe how cell-SELEX was used to identify biomarkers of onset the of AD. OA treated differentiated SH-SY5Y cells were used as a surrogate for hyperphosphorylative neurons to screen DNA aptamers that specifically recognize the differences between the surfaces of treated and untreated cells, using the cell-SELEX methodology modified to capture membrane binding aptamers. A total of 26 cell SELEX cycles were performed. […]
Negative selection eliminated certain sequences that were not specific to the hyperphosphorylative state or have a propensity for hepatocyte uptake. […] The 23 most abundant sequences at round 26 were identified, and their abundance throughout the SELEX process as calculated using AptaAligner is shown in FIG. 2B. […] The secondary structure of the aptamers Tau_1 (SEQ ID NO: 5; DONGYBM) and Tau_3 (SEQ ID NO: 6; MUSQD) calculated using mfold is shown in FIG. 2D. […]
Next-Generation Sequencing (NGS). […] Equimolar quantities of the recovered TA sequences over the range were pooled together and sequenced by Next-Gen DNA sequencing using Ion318 chip (ThermoFisher, Waltham, MA). […]

[4] = tested on: hyperphosphorylated SH-SY5Y cells; assay: Aptamer-based pulldown and mass spectrometry target identification; set-up: species or system human; conditions: pulldown / immunoprecipitation, mass-spectrometry
Method: To characterize the binding target of the aptamers, an aptamer-based pulldown assay was performed, along with aptamer-based immunoprecipitation, followed by mass-spectrometry. The assay was performed for both Tau_1 (SEQ ID NO: 5; DONGYBM) and Tau_3 (SEQ ID NO: 6; MUSQD) aptamers. […] The surface expression of Keratin 6a, 6b was similar on wild-type and transgenic tissue sections, whereas the VIM expression was higher in the Tg mice (FIG. 6C).
Target Identification. The protein targets of Tau_1 (SEQ ID NO: 5; DONGYBM), Tau_3 (SEQ ID NO: 6; MUSQD), Tau-4, and Tau-5 were identified by affinity-pull down using the selected aptamers as the capturing reagent followed by mass-spectroscopy. A scrambled DNA sequence, R2, was used as a control. The hyperphosphorylated SH-SY5Y cells, at 90-95% confluence, were washed with cold PBS buffer and incubated with biotinylated selected aptamers with […] each at 4° C. in PBS, respectively. After 2 hours of gentle agitation, SH-SY5Y cells were cross-linked with 1% formaldehyde for 10 min at rt. The formaldehyde cross-linking was quenched with glycine. Cells were scraped from the plate, washed, lysed with lysing buffer (Thermofisher Scientific, #87787), and treated with protease inhibitor mixture. The lysates were freeze-thawed for 30 min on ice and cleared by centrifuging at 10,000×g for 2 min at 4° C. […] Each sample was analyzed in triplicate. […]

Chain of tetrameric VIM (P08670 whole entry): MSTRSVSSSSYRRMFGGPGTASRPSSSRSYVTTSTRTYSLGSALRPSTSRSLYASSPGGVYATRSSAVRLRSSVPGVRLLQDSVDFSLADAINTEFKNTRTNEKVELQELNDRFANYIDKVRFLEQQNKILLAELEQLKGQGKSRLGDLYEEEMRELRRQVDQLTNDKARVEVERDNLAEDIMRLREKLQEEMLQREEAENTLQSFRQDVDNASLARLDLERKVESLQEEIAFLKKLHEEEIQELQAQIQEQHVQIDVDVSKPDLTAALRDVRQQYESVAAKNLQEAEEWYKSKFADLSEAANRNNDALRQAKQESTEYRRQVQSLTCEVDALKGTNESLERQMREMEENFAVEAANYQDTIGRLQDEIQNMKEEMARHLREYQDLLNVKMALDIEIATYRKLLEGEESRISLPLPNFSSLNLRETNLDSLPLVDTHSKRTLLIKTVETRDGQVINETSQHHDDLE

Compound	off-target binding (MAO-B enzyme)	binding site on vimentin (tetrameric VIM)	Kd [1]	Kd (ReN-VM cells)	binding of Cy5-labeled aptamer to cells [2]	fraction of the thioaptamers present (abundance) [3]	possible binding targets by abundance score ranking [4]
Fc1ccc(-c2ccc3c(c2)[nH]c2ccncc23)cn1 [Flortaucipir]	binds the MAO-B enzyme in the brain	–	–	–	–	–	–
CC1=C(CO)C(=O)O[C@@H]([C@@H](C)[C@H]2CC[C@H]3[C@@H]4C[C@H]5O[C@]56[C@@H](O)C=CC(=O)[C@]6(C)[C@H]4CC[C@]23C)C1 [Withaferin A]	–	binds the conserved cysteine 382 residue on tetrameric VIM	–	–	–	–	–
Tau_1: DNA thioaptamer CCCCCCACGGTCTCCGCTCCACAAGTTCAC (DNA, backbone and methylation of C not given here; further chemistry not fully specified)	–	–	0.167 ± 0.015 nM	318 ± 46.2 nM	elevated binding levels with the hyperphosphorylative cells	20.6%	keratin 6a, Keratin 6b, and VIM
Tau_3: DNA thioaptamer CCCCCCACGGTCTCCGCTCCACAAGTCCAC	–	–	0.194 ± 0.032 nM	234 ± 38.6 nM	elevated binding levels with the hyperphosphorylative cells	10.4%	keratin 6a, Keratin 6b, and VIM
